What follows are compounds tested against Estrogen receptor (Rattus norvegicus) (UniProt P06211+Q62986) (assay: Binding affinity for rat uterine estrogen receptor relative to estradiol).
Format: protein assay

Row | SMILES | RBA [%]
1 | O=C1C(c2ccc(O)cc2)=C(c2ccc(O)cc2)c2ccc(O)cc21 | 23
2 | Oc1ccc2c(c1)Cc1c-2c2ccccc2c2ccccc12 | 0.01
3 | Oc1ccc(C2=C(c3ccc(O)cc3)c3ccc(O)cc3CC2)cc1 | 140
4 | O=C1C(c2ccccc2)=C(c2ccccc2)c2ccc(O)cc21 | 59
5 | Oc1ccc(C2=C(c3ccc(O)cc3)c3ccc(O)cc3C2)cc1 | 15
6 | Oc1ccc2c(c1)CC(c1ccccc1)=C2c1ccccc1 | 8.9

Source: ChEMBL document CHEMBL1124225, “2,3-Diarylindenes and 2,3-diarylindenones: synthesis, molecular structure, photochemistry, estrogen receptor binding affinity, and comparisons with related triarylethylenes” (J Med Chem, 1988)
